# Measurements taken from ChEMBL document CHEMBL5385897, “Computer-Aided drug design of new 2-amino-thiophene derivatives as anti-leishmanial agents” (Eur J Med Chem, 2023).
# pIC50: −log10 of the molar value.
# Tests used:
# Leishmania amazonensis [1] = assay: Antileishmanial activity against Leishmania amazonensis axenic amastigote assessed as inhibition of parasite growth incubated for 72 hrs by MTT colorimetric assay; format: functional, organism-based
# [2] = Cytotoxicity against mouse J774.A1 cells incubated for 72 hrs by MTT colorimetric assay; format: toxicity, cell-based
# Leishmania amazonensis [3] = assay: Antileishmanial activity against Leishmania amazonensis promastigote assessed as inhibition of parasite growth incubated for 72 hrs by MTT colorimetric assay; format: functional, organism-based
# [4] = Selectivity index, ratio of CC50 for cytotoxicity against mouse J774.A1 cells to IC50 for antileishmanial activity against Leishmania amazonensis axenic amastigote assessed as inhibition of parasite growth; format: toxicity, cell-based; conditions: read-out: Ratio CC50/IC50
# [5] = Selectivity index, ratio of CC50 for cytotoxicity against mouse J774.A1 cells to IC50 for antileishmanial activity against Leishmania amazonensis promastigote assessed as inhibition of parasite growth; format: toxicity, cell-based; conditions: read-out: Ratio CC50/IC50
Compound,pIC50 (Leishmania amazonensis [1]),CC50 at 72 h [2] [µM],pIC50 (Leishmania amazonensis [3]),selectivity ratio [4],selectivity ratio [5]
N#Cc1c(/N=C/c2c[nH]c3ccc(Br)cc23)sc2c1CCC2,< 5.00,> 100,< 5.00,–,–
N#Cc1ccsc1/N=C/c1c[nH]c2ccc(Br)cc12,6.15,84.7,5.01,119,8.73
N#Cc1c(N)sc2c1CCCCC2,5.55,99.5,–,35.7,31.1
N#Cc1c(N)sc2c1CCCC2,< 5.00,–,–,–,–
CC1CCc2c(sc(/N=C/c3c[nH]c4ccc(Br)cc34)c2C#N)C1 (stereo unspecified),5.06,> 100,5.00,> 11.5,> 10.1
N#Cc1c(/N=C/c2c[nH]c3ccc(Br)cc23)sc2c1CCNC2,< 5.00,11.2,< 5.00,–,–
COc1ccc2[nH]cc(/C=N/c3sc4c(c3C#N)CCCCCC4)c2c1,2.67,–,3.05,–,–
N#Cc1c(/N=C/c2c[nH]c3ccc(Br)cc23)sc2c1CCCCCCCCCC2,< 5.00,> 100,< 5.00,–,–
N#Cc1c(/N=C/c2c[nH]c3ccc(Br)cc23)sc2c1CCCCCC2,5.42,> 100,5.32,> 26.3,> 21.1
N#Cc1c(N)sc2c1CCCCCC2,5.01,43.9,5.92,4.47,36.6
